Measured values as given in patent publication US20250082658A1, “CELL PROLIFERATION RETARDANT, COSMETIC CONTAINING SAME, AND CELL PROLIFERATION RETARDATION METHOD” (NATIONAL UNIVERSITY CORPORATION KAGAWA UNIVERSITY, priority 2022, published 2025).

Columns and labels:
U251 cells [1] = experiment: WST-1 cell proliferation assay, U251; type: cell-based, human; details: 48 hours, 3, 5, 10, 30 or 50 mM
Procedure: (§1) The cell proliferation ability in medium alone (control) and 48 hours after administration of D-glucose or D-allose was compared by WST-1 assay. U251 cells or U87 cells, as cultured human brain tumor cells, were cultured for 48 hours without administration of a sugar (control) or with addition of D-allose or D-glucose at different concentrations (3, 5, 10, 30 or 50 mM), and then analyzed by WST-1 assay to compare the effects on cell proliferation.

U87 cells [2] = experiment: WST-1 cell proliferation assay, U87; type: cell-based, human; details: 48 hours, 3, 5, 10, 30 or 50 mM
Procedure: as §1

U251 cells [3] = experiment: Apoptosis by flow cytometry after annexin V staining, U251; type: cell-based, human; details: doses that induce growth inhibition, 48 hours
Procedure: (§2) The proportion of apoptotic cells in medium alone (control) and 48 hours after administration of D-glucose or D-allose was compared by flow cytometry analysis of the cells stained with annexin V. In order to elucidate the mechanism of the growth inhibition effect on brain tumor cells by D-allose, the cells were evaluated for apoptosis by flow cytometry after annexin V staining (FIG. 2).

U87 cells [4] = experiment: Apoptosis by flow cytometry after annexin V staining, U87; type: cell-based, human; details: doses that induce growth inhibition, 48 hours
Procedure: as §2

U251 cells [5] = experiment: Cell cycle evaluation by PI/RNase flow cytometry, U251; type: cell-based, human; details: 50 mM, 24 hours
Procedure: (§3) The proportion of cells in each cell cycle in medium alone (control) and 48 hours after administration of D-glucose or D-allose was compared by flow cytometry analysis.
(§4) Considering the possibility that growth inhibition of brain tumor cells may be caused by arrest of the cell cycle by D-allose, flow cytometry (FACS analysis) was carried out to identify changes in the cell cycle (see Yamaguchi F, Takata M. Kamitori K, et al. Rare sugar D-allose induces specific up-regulation of TXNIP and subsequent G1 cell cycle arrest in hepatocellular carcinoma cells by stabilization of p27kip1. Int J Oncol. 2008; 32(2):377-385). Specifically, the cell cycle was evaluated by Propidium Iodide (PI)/RNase Staining Solution (Cell Signaling Technology). The cells were cultured for 24 hours using DMEM, 50 mM D-glucose or 50 mM D-allose. The cultured cells were then recovered using trypsin and washed twice with PBS, and then fixed with 70% ethanol overnight at −20° C. After washing with PBS, the cells were stained in a dark room at room temperature for 30 minutes using 500 μl of PI reagent, washed with PBS, and then monitored for luminescence at 617 nm by flow cytometry. The data were analyzed using Kaluza analysis software (Ver. 1.2. Beckman Coulter), and the effects on the cell cycle were evaluated based on changes in the cell distribution rate at each phase of the cell cycle.

U87 cells [6] = experiment: Cell cycle evaluation by PI/RNase flow cytometry, U87; type: cell-based, human; details: 50 mM, 24 hours
Procedure: as §3, §4

brain tumor cells = experiment: CytoTell fluorogenic probe cell proliferation monitoring; type: cell-based, human; details: 50 mM; 96 hours after 24 hours probe uptake
Procedure: Next, CytoTell™, a fluorogenic probe for flow cytometry which is recently being used as a cell proliferation monitoring reagent, was taken up into the brain tumor cells for 24 hours, and the cells were allowed to stand for 96 hours either without administration of a sugar (control) or with administration of 50 mM D-glucose and 50 mM D-allose, and attenuation of the fluorogenic probe intensity in the cells was evaluated (FIG. 4-1).

PK-1 cells = experiment: WST-1 cell proliferation assay, PK-1; type: cell-based, human; details: 48 hours
Procedure: PK-1 cells, as cultured human pancreatic cancer cells, were cultured for 48 hours with addition of D-allose or D-glucose at 25 or 50 mM concentration, and then analyzed by WST-1 assay to compare the effects on cell proliferation. PK-1 cells, as cultured human pancreatic cancer cells, were cultured for 48 hours with addition of allitol or D-mannitol at 50 mM concentration, and then analyzed by WST-1 assay to compare the effects on cell proliferation.

[7] = test system: PK-1 pancreatic cancer cells; experiment: Apoptosis by flow cytometry with annexin V staining, PK-1; type: cell-based, human; details: 50 mM
Procedure: Apoptosis was evaluated by flow cytometry using annexin V staining.

[8] = test system: PK-1 pancreatic cancer cells; experiment: Cell cycle evaluation by PI/RNase flow cytometry, PK-1; type: cell-based, human; details: 50 mM
Procedure: Considering the possibility that the growth inhibition effect on cultured human PK-1 pancreatic cancer cells by D-allose may be via arrest of the cell cycle, changes in the cell cycle were identified using flow cytometry (FACS analysis). Specifically, PK-1 cells were brought to a serum-starved state overnight and then fixed with 70% ethanol overnight at −20° C. For staining of the cellular DNA, the cells obtained as a centrifuged pellet were resuspended in 450 μL of propidium iodide (PI)/RNase solution (Cell Signaling Technology, Danvers, MA, USA), and cultured in a dark environment at room temperature for 30 minutes. Analysis was then carried out with a flow cytometer (Cytomics FC500 flow cytometry system, Beckman Coulter, Indianapolis, IN, USA) using 10,000 cells per sample.

[9] = test system: cultured human PK-1 pancreatic cancer cells; experiment: Cell cycle time course after nocodazole arrest and release, PK-1; type: cell-based; details: 50 mM, after removal of 50 nM nocodazole (12 hours)
Procedure: Culturing was carried out for 12 hours in the presence of 50 nM nocodazole, and the cell cycle was arrested. The nocodazole was removed to restart the cell cycle, while administering medium alone (control) or D-glucose or D-allose (50 mM), after which samples were periodically taken and the cell cycle ratio was analyzed by flow cytometry.
Shown is the cell cycle ratio (G0/1 phase, S phase and G2/M phase) for cultured human pancreatic cancer cells PK-1 cultured with the schedule in FIG. 8.
Culturing was carried out according to the schedule in FIG. 8, except for administering D-mannitol or allitol instead of D-glucose or D-allose.
First, 50 nM of nocodazole was reacted with cultured human PK-1 pancreatic cancer cells for 12 hours to preemptively stop the cell cycle. The nocodazole was then removed from the culture solution to begin restart of the cell cycle, thus allowing periodic observation of the cell cycle from a reset state. The effect of D-allose on the speed of the cell cycle was investigated in detail under these experimental conditions.
Considering the possibility that the growth inhibition effect on cultured human PK-1 pancreatic cancer cells by allitol may be via arrest of the cell cycle, changes in the cell cycle were identified using flow cytometry (FACS analysis) by the same method as Example 2.

[10] = test system: glycolysis in cultured human PK-1 pancreatic cancer cells; experiment: Glycolysis evaluation with XFe24 extracellular flux analyzer (OCR, ECAR); type: cell-based
Text: In the same manner as Example 2, an XFe24 extracellular flux analyzer (24-well) by Agilent Technologies (previously Seahorse Bioscience) was used to measure the oxygen consumption rate (OCR value) and extracellular acidification rate (ECAR value) of cultured human PK-1 pancreatic cancer cells and examine effects on the glycolysis.

[11] = test system: human pancreatic cancer cells PK-1; experiment: Metabolome analysis of central energy metabolism (C-SCOPE), PK-1; type: cell-based; details: 50 mM, 12 hours
Procedure: (§5) Cultured human pancreatic cancer cells PK-1 and PANC-1 (5.0×10^6) were cultured for 12 hours at 37° C. in a 5% CO2 atmosphere, either without addition of a sugar (control) or with addition of 50 mM D-glucose or D-allose. Samples of both cells were then prepared according to the protocol provided by Human Metabolome Technologies, Inc. (Tsuruoka City, Yamagata Prefecture. Japan) and measured for 116 substances (see Table 1) related to central energy metabolism (glycolysis, TCA cycle, amino acid metabolism and nucleic acid metabolism) using an Analysis Service provided by the same company (C-SCOPE (https://humanmetabolome.com/jpn/service/analysis/cscope/)), after which principal component analysis (PCA) (FIG. 15), heat map analysis (FIGS. 16 to 19) and pathway map analysis (FIG. 20) were carried out based on the measurement results.

[12] = test system: human pancreatic cancer cells PANC-1; experiment: Metabolome analysis of central energy metabolism (C-SCOPE), PANC-1; type: cell-based; details: 50 mM, 12 hours
Procedure: as §5

[13] = test system: human pancreatic cancer cell line PK-1; experiment: Cell cycle visualization with tFucci(CA)5, PK-1; type: cell-based; details: 50 mm, 0 to 84 hours
Text: The human pancreatic cancer cell line PK-1 was transfected with tFucci(CA)5 (Plasmid #153521) (see Ando R., et al., Two new coral fluorescent proteins of distinct colors for sharp visualization of cell-cycle progression, bioRYiv, 2020, https://www.biorxiv.org/content/10.1101/2020.03.30.015156v2) purchased from Addgene (Massachusetts, USA), for cell cycle visualization. […] The cells were used to observe effects on the cell cycle of the human pancreatic cancer cell line PK-1 with and without addition of D-allose (50 mm).

cancer cell lines = details: reported (NPL 5); cited from earlier work
cell cycle = details: reported (PTL 1); cited from earlier work
[14] = known (PTL 2); cited from earlier work

For `O=C[C@H](O)[C@H](O)[C@H](O)[C@H](O)CO` [D-allose], which “cell proliferation ability (WST-1)” value (U251 cells [1]) is on record?
Its value is “dose-dependent cell growth inhibitory effect”.

What about the “cell proliferation ability (WST-1)” value (U87 cells [2]) of the same compound?
Its value is “dose-dependent cell growth inhibitory effect”.

What about the “induction of apoptosis (annexin V)” value (U251 cells [3]) of the same compound?
Its value is “apoptosis is not induced”.

What about the “induction of apoptosis (annexin V)” value (U87 cells [4]) of the same compound?
The value was “apoptosis is not induced”.

What about the “arrest of the cell cycle” value (U251 cells [5]) of the same compound?
The value was “did not induce arrest of the cell cycle”.

And the “arrest of the cell cycle” value (U87 cells [6])?
Its value is “did not induce arrest of the cell cycle”.

And the “attenuation of fluorogenic probe intensity in the cells” value (brain tumor cells)?
The value was “notably inhibited attenuation of fluorescent probe intensity”.

What about the “cell proliferation (WST-1)” value (PK-1 cells; 25 or 50 mM) of the same compound?
The value was “exhibited a cell growth inhibitory effect”.

And the “apoptosis (annexin V)” value [7]?
Its value is “apoptosis was not produced”.

What about the G0/G1 phase ratio [8] of the same compound?
The G0/G1 phase ratio was “slight increase”.

What about the “transition from the G0/1 phase to the S phase” value [9] of the same compound?
The value was “significant delaying of transition from the G0/I phase to the S phase”.

What about the “transition to the G2/M phase” value [9] of the same compound?
Its value is “This delaying effect was also exhibited for transition to the G2/M phase”.

What about the “glycolysis in the cells” value ([10]; 50 mM for 16 hours) of the same compound?
The value was “notably inhibited the glycolysis”.

And the “glycolytic capacity, or its reserve capacity” value ([10]; 50 mM for 16 hours)?
Its value is “lowered”.

What about the “fructose 1,6-diphosphate” value [11] of the same compound?
Its value is “reducing”.

And the “fructose 1-phosphate in the polyol pathway” value [11]?
Its value is “increased”.

And the “fructose 6-phosphate in the glycolysis” value [11]?
Its value is “increased”.

And the “glucose 6-phosphate in the glycolysis” value [11]?
The value was “increased”.

And the “intracellular metabolic profile (PCA, heat map)” value [11]?
Its value is “significantly altered intracellular metabolic profile”.

And the “fructose 1,6-diphosphate” value [12]?
The value was “reducing”.

What about the “fructose 1-phosphate in the polyol pathway” value [12] of the same compound?
The value was “increased”.

What about the “fructose 6-phosphate in the glycolysis” value [12] of the same compound?
The value was “increased”.

What about the “glucose 6-phosphate in the glycolysis” value [12] of the same compound?
The value was “increased”.

And the “intracellular metabolic profile (PCA, heat map)” value [12]?
The value was “significantly altered intracellular metabolic profile”.

And the “effect on the cell cycle (tFucci(CA)5 fluorescence microscopy)” value [13]?
The value was “delay the cell cycle, primarily at transition from the G1 phase to the S phase”.

What about the “proliferation of cancer cell lines” value (cancer cell lines) of the same compound?
Its value is “can inhibit proliferation of cancer cell lines”.

What about the “G2 phase of the cell cycle” value (cell cycle) of the same compound?
The value was “delaying the “G2 phase” of the cell cycle”.

For `OC[C@@H](O)[C@@H](O)[C@@H](O)[C@@H](O)CO` [allitol, (2S,3S,4R,5R)-hexane-1,2,3,4,5,6-hexaol], which “cell proliferation (WST-1)” value (PK-1 cells; 50 mM) is on record?
The value was “exhibited a cell proliferation inhibiting effect”.

What about the “apoptosis (annexin V)” value [7] of the same compound?
Its value is “no apoptosis had occurred”.

What about the “transition from the G0/1 phase to the S phase” value [9] of the same compound?
The value was “significantly delayed the transition from the G0/1 phase to the S phase”.

What about the “transition to the G2/M phase” value [9] of the same compound?
Its value is “This delaying effect was also exhibited for transition to the G2/M phase”.

What about the “glycolysis in the cells” value ([10]; 50 mM for 18 hours) of the same compound?
Its value is “inhibited the glycolysis”.

And the “glycolytic capacity, or its reserve capacity” value ([10]; 50 mM for 18 hours)?
The value was “significantly lowered”.

And the fat accumulation [14]?
The fat accumulation was “fat accumulation-inhibiting effect”.
